Values joined by “and” are separate entries in the source; they are usually repeats but may differ in a detail not shown here. Identical values can stand only once. Toxic doses and inconclusive results are not listed. Rule as the data show it: active = T/C of 150% or more; inactive = T/C below 125%. Square brackets hold non-standard residues; d marks the D form. Peptide text beside a SMILES is read from it. * marks the point of attachment. ξ: configuration not given here. ξH = NC(Cc1c[nH]cn1)C(=O)O; Cbz = O=C(OCc1ccccc1)*
System: L1210 leukemia ip in BDF1 mice, survival T/C
Test: NCI In Vivo Anticancer Drug Screen. Data for tumor model L1210 Leukemia (intraperitoneal) in B6D2F1 (BDF1) mice
Details: endpoint: mean survival time, higher = longer survival
Outline: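 Ratio derived from survival: compound-dosed mice over vehicle-dosed mice, all bearing a transplantable tumor.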

[1] = dose: 25.0 mg/kg/injection, schedule: Q01DX009 (ip), vehicle: Klucel (hydroxypropylcellulose) (HPC)
[2] = dose: 50.0 mg/kg/injection, schedule: Q01DX009 (ip), vehicle: Klucel (hydroxypropylcellulose) (HPC)
[3] = dose: 400.0 mg/kg/injection, schedule: Q01DX001 (ip), vehicle: Klucel (hydroxypropylcellulose) (HPC)
[4] = dose: 400.0 mg/kg/injection, schedule: Q01DX001 (ip), vehicle: saline
[5] = dose: 12.5 mg/kg/injection, schedule: Q01DX009 (ip), vehicle: saline
[6] = dose: 25.0 mg/kg/injection, schedule: Q01DX009 (ip), vehicle: saline
[7] = dose: 25.0 mg/kg/injection, schedule: Q04DX003 (ip), vehicle: saline
[8] = dose: 50.0 mg/kg/injection, schedule: Q01DX009 (ip), vehicle: saline
[9] = dose: 50.0 mg/kg/injection, schedule: Q04DX003 (ip), vehicle: saline
[10] = dose: 5.0 mg/kg/injection, schedule: Q01DX001 (ip), vehicle: saline
[11] = dose: 10.0 mg/kg/injection, schedule: Q01DX001 (ip), vehicle: saline
[12] = dose: 20.0 mg/kg/injection, schedule: Q01DX001 (ip), vehicle: saline
[13] = dose: 100.0 mg/kg/injection, schedule: Q01DX009 (ip), vehicle: saline with Tween-80
[14] = dose: 200.0 mg/kg/injection, schedule: Q01DX009 (ip), vehicle: saline with Tween-80
[15] = dose: 400.0 mg/kg/injection, schedule: Q01DX009 (ip), vehicle: saline with Tween-80
[16] = dose: 100.0 mg/kg/injection, schedule: Q04DX003 (ip), vehicle: saline with Tween-80
[17] = dose: 200.0 mg/kg/injection, schedule: Q04DX003 (ip), vehicle: saline with Tween-80
[18] = dose: 100.0 mg/kg/injection, schedule: Q01DX009 (ip), vehicle: Klucel (hydroxypropylcellulose) (HPC)
[19] = dose: 400.0 mg/kg/injection, schedule: Q04DX003 (ip), vehicle: saline with Tween-80
[20] = dose: 100.0 mg/kg/injection, schedule: Q04DX003 (ip), vehicle: saline

Measured: T/C

O=C(c1ccc(Cl)cc1)C(C(c1ccc([N+](=O)[O-])cc1)N1CCCCC1)N1CCCCC1 (stereo not drawn)
inactive: dose: 12.5 mg/kg/injection, schedule: Q01DX001 (ip), vehicle: Klucel (hydroxypropylcellulose) (HPC) 98 % of control | dose: 12.5 mg/kg/injection, schedule: Q01DX009 (ip), vehicle: Klucel (hydroxypropylcellulose) (HPC) 102 % of control | dose: 25.0 mg/kg/injection, schedule: Q01DX001 (ip), vehicle: Klucel (hydroxypropylcellulose) (HPC) 104 % of control | [1] 98 % of control | dose: 50.0 mg/kg/injection, schedule: Q01DX001 (ip), vehicle: Klucel (hydroxypropylcellulose) (HPC) 102 % of control | [2] 101 % of control | [3] 92 % of control

O=C(CNC(=O)OCc1ccccc1)NC(Cc1cnc[nH]1)C(=O)O (stereo not drawn) (Cbz-Gly-[ξH]-OH)
inactive: dose: 100.0 mg/kg/injection, schedule: Q01DX001 (ip), vehicle: saline 96 % of control | dose: 200.0 mg/kg/injection, schedule: Q01DX001 (ip), vehicle: saline 104 % of control | [4] 107 % of control

CN(C)CCCN1c2ccccc2CCc2ccc(Cl)cc21
inactive: dose: 3.12 mg/kg/injection, schedule: Q01DX009 (ip), vehicle: saline 97 % of control | dose: 6.25 mg/kg/injection, schedule: Q01DX009 (ip), vehicle: saline 108 % of control | [5] 94 % of control | [6] 94 % of control | [7] 96 % of control | [8] 101 % of control | [9] 96 % of control

O=S(=O)(CCCl)CCc1ccccc1
inactive: dose: 100.0 mg/kg/injection, schedule: Q04DX002 (ip), vehicle: saline with Tween-80 96 % of control | dose: 200.0 mg/kg/injection, schedule: Q04DX002 (ip), vehicle: saline with Tween-80 89 % of control | dose: 400.0 mg/kg/injection, schedule: Q04DX002 (ip), vehicle: saline with Tween-80 93 % of control

CS(=O)(=O)N(CC(=O)O)Cc1cccc(Cl)c1
inactive: dose: 100.0 mg/kg/injection, schedule: Q01DX009 (ip), vehicle: other 100 % of control | dose: 100.0 mg/kg/injection, schedule: Q04DX003 (ip), vehicle: other 100 % of control | dose: 200.0 mg/kg/injection, schedule: Q01DX009 (ip), vehicle: other 101 % of control | dose: 200.0 mg/kg/injection, schedule: Q04DX003 (ip), vehicle: other 102 % of control | dose: 400.0 mg/kg/injection, schedule: Q01DX009 (ip), vehicle: other 97 % of control | dose: 400.0 mg/kg/injection, schedule: Q04DX003 (ip), vehicle: other 103 % of control

c1ccc([P+](CCCCCCCCCC[P+](c2ccccc2)(c2ccccc2)c2ccccc2)(c2ccccc2)c2ccccc2)cc1
inactive: [10] 105 % of control | [11] 102 % of control | [12] 110 % of control

COc1ccc(NC(=S)N(C)C)cc1
inactive: [13] 98 % of control | [14] 110 % of control | [15] 98 % of control

CCCCCC#CCO
inactive: [16] 108 % of control | [17] 101 % of control

CC1(C)NC(=O)N(Cc2ccccc2)C1=O
inactive: [18] 94 % of control | [16] 98 % of control | dose: 200.0 mg/kg/injection, schedule: Q01DX009 (ip), vehicle: Klucel (hydroxypropylcellulose) (HPC) 97 % of control | [17] 110 % of control | dose: 400.0 mg/kg/injection, schedule: Q01DX009 (ip), vehicle: Klucel (hydroxypropylcellulose) (HPC) 100 % of control | [19] 105 % of control

CN1CCN(C(=O)c2ccc(Cl)c(Cl)c2)CC1
inactive: dose: 12.5 mg/kg/injection, schedule: Q01DX009 (ip), vehicle: saline with Tween-80 117 % of control | dose: 12.5 mg/kg/injection, schedule: Q04DX003 (ip), vehicle: saline 102 % of control | dose: 25.0 mg/kg/injection, schedule: Q01DX009 (ip), vehicle: saline with Tween-80 114 % of control | [7] 102 % of control | dose: 50.0 mg/kg/injection, schedule: Q01DX009 (ip), vehicle: saline with Tween-80 102 % of control and 115 % of control | [9] 108 % of control | dose: 75.0 mg/kg/injection, schedule: Q01DX009 (ip), vehicle: saline with Tween-80 115 % of control | [13] 95 % of control

O=C(CCCCCCCC(=O)Nc1cc(C2=NCCN2)cc(C2=NCCN2)c1)Nc1cc(C2=NCCN2)cc(C2=NCCN2)c1
inactive: dose: 12.0 mg/kg/injection, schedule: Q01DX Z (ip), vehicle: carboxymethylcellulose (CMC) 105 % of control

O=C(O)CNCc1ccc2c(c1)OCCO2
inactive: dose: 100.0 mg/kg/injection, schedule: Q01DX001 (ip), vehicle: Klucel (hydroxypropylcellulose) (HPC) 108 % of control | dose: 200.0 mg/kg/injection, schedule: Q01DX001 (ip), vehicle: Klucel (hydroxypropylcellulose) (HPC) 92 % of control | [3] 95 % of control

CCCCCCCCCCCCCCCCNS(=O)(=O)c1ccc(N2CCOCC2)c(N)c1
inactive: dose: 100.0 mg/kg/injection, schedule: Q04DX003 (ip), vehicle: Klucel (hydroxypropylcellulose) (HPC) 93 % of control | dose: 200.0 mg/kg/injection, schedule: Q04DX003 (ip), vehicle: Klucel (hydroxypropylcellulose) (HPC) 98 % of control | dose: 400.0 mg/kg/injection, schedule: Q04DX003 (ip), vehicle: Klucel (hydroxypropylcellulose) (HPC) 94 % of control

CC(C)C1=CC2=CCC3C(C)(C(N)=O)CCCC3(C)C2CC1CC#N (stereo not drawn)
inactive: [13] 93 % of control | [14] 93 % of control | [17] 91 % of control | [15] 94 % of control | [19] 93 % of control

COc1cc2ccc3ccncc3c2cc1OC
inactive: [5] 104 % of control | [6] 106 % of control and 115 % of control | [8] 97 % of control and 111 % of control | [20] 86 % of control

CCCC(C(=O)O)C1=CCCC1 (stereo not drawn)
inactive: [13] 88 % of control | [20] 98 % of control | dose: 200.0 mg/kg/injection, schedule: Q04DX003 (ip), vehicle: saline 103 % of control | dose: 400.0 mg/kg/injection, schedule: Q04DX003 (ip), vehicle: saline 101 % of control

O=C(O)c1cc(I)c(OCc2ccccc2)c(I)c1
inactive: dose: 100.0 mg/kg/injection, schedule: Q01DX001 (ip), vehicle: carboxymethylcellulose (CMC) 100 % of control | dose: 200.0 mg/kg/injection, schedule: Q01DX001 (ip), vehicle: carboxymethylcellulose (CMC) 94 % of control | dose: 400.0 mg/kg/injection, schedule: Q01DX001 (ip), vehicle: carboxymethylcellulose (CMC) 96 % of control

CC1CCC(C)(C)CC1(C)c1cc(CN(C)C)c(O)c(CN(C)C)c1 (stereo not drawn)
inactive: dose: 12.5 mg/kg/injection, schedule: Q04DX003 (ip), vehicle: acetone 93 % of control | dose: 25.0 mg/kg/injection, schedule: Q04DX003 (ip), vehicle: acetone 98 % of control | dose: 50.0 mg/kg/injection, schedule: Q04DX003 (ip), vehicle: acetone 90 % of control

CCCCCCCCCCCCCCCCCC(=O)NCC#CCN1CCCC1
inactive: [10] 97 % of control | [11] 94 % of control | [12] 100 % of control | [1] 96 % of control | dose: 40.0 mg/kg/injection, schedule: Q01DX001 (ip), vehicle: saline 105 % of control | [2] 95 % of control | dose: 80.0 mg/kg/injection, schedule: Q01DX001 (ip), vehicle: saline 94 % of control | [18] 90 % of control | [4] 104 % of control

Reference: PubChem BioAssay AID248 (DTP/NCI, 2004)
